In PubChem BioAssay (NCI):
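Interpolation was linear, between the two tested concentrations surrounding the appropriate level; five concentrations were tested over 48 hours in 96-well plates. TGI denotes the concentration required for complete inhibition of growth.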

Assays:
Assay in all cases: growth of human tumour cells (NCI), 48 h
NCI-H522 lung = system: NCI-H522 lung
KM12 colon = system: KM12 colon
SNB-19 CNS = system: SNB-19 CNS
CCRF-CEM leukemia = system: CCRF-CEM leukemia
SK-OV-3 ovarian = system: SK-OV-3 ovarian
UO-31 renal = system: UO-31 renal
NCI-H226 lung = system: NCI-H226 lung
MOLT-4 leukemia = system: MOLT-4 leukemia
EKVX NSCLC = system: EKVX NSCLC
SN12C renal = system: SN12C renal
OVCAR-4 ovarian = system: OVCAR-4 ovarian
COLO 205 colon = system: COLO 205 colon
RPMI-8226 leukemia = system: RPMI-8226 leukemia
SK-MEL-28 melanoma = system: SK-MEL-28 melanoma
SK-MEL-2 melanoma = system: SK-MEL-2 melanoma
M14 melanoma = system: M14 melanoma
OVCAR-5 ovarian = system: OVCAR-5 ovarian
NCI-H460 lung = system: NCI-H460 lung
HCC-2998 colon = system: HCC-2998 colon

Row | SMILES | TGI (NCI-H522 lung) [µM] | TGI (KM12 colon) [µM] | TGI (SNB-19 CNS) [µM] | TGI (CCRF-CEM leukemia) [µM] | TGI (SK-OV-3 ovarian) [µM] | TGI (UO-31 renal) [µM] | TGI (NCI-H226 lung) [µM] | TGI (MOLT-4 leukemia) [µM] | TGI (EKVX NSCLC) [µM] | TGI (SN12C renal) [µM] | TGI (OVCAR-4 ovarian) [µM] | TGI (COLO 205 colon) [µM] | TGI (RPMI-8226 leukemia) [µM] | TGI (SK-MEL-28 melanoma) [µM] | TGI (SK-MEL-2 melanoma) [µM] | TGI (M14 melanoma) [µM] | TGI (OVCAR-5 ovarian) [µM] | TGI (NCI-H460 lung) [µM] | TGI (HCC-2998 colon) [µM]
1 | C/C(CN1C(=O)c2ccccc2C1=O)=N\NS(=O)(=O)c1ccc(F)cc1 | > 100 | > 100 | > 100 | > 100 | > 100 | > 100 | > 100 | > 100 | > 100 | > 100 | > 100 | > 100 | > 100 | > 100 | > 100 | > 100 | > 100 | > 100 | > 100
2 | O=C(Nc1cc(Cl)c(Cl)cc1Cl)C(=O)C(C(=O)c1ccc2ccccc2c1)C1OC(=O)c2ccccc21 (stereo not given) | 26.9 | 31.2 | 33.2 |  | > 100 | 33.5 | 7.13 |  | 36.6 | 42.5 |  | 69.2 | > 100 | 22.1 | 33.8 | 50.7 | 31.9 | 25.9 | 
3 | O=C1C=C(Nc2ccccc2C(=O)CC(=O)C(=O)Nc2ccc(Cl)c(Cl)c2)c2ccccc2C1=O | 54.5 | > 100 | > 100 | > 100 | > 100 | > 100 | > 100 | > 100 |  | > 100 | > 100 | > 100 | > 100 | 37.4 | > 100 | > 100 | > 100 | > 100 | > 100
4 | CCCCCC(=O)Cc1cc(OC)cc2c1C(=O)Oc1cc(O)c(C(=O)O)c(CC(=O)CCCCC)c1O2 | > 100 | > 100 |  | > 100 | > 100 |  | > 100 | > 100 | > 100 |  |  | > 100 | > 100 |  |  | > 100 | > 100 | > 100 | > 100
5 | C1=c2ccccc2=C2C(=C(c3ccccc3)C(c3ccccc3)=NN2c2ccccc2)S1 | > 100 | > 100 | > 100 | > 100 | > 100 | > 100 | > 100 | > 100 | > 100 | > 100 | > 100 | > 100 | > 100 | > 100 | > 100 | > 100 | > 100 | > 100 | > 100
6 | COC1=CC(=O)c2ccccc2C1(C)C1=NC(C)(C)CO1 (stereo not given) | > 100 | > 100 | > 100 | > 100 | > 100 | > 100 | > 100 | > 100 | > 100 | > 100 | > 100 | > 100 | > 100 | > 100 | > 100 | > 100 |  | > 100 | 
7 | C[N+](C)(Cc1ccc(NC(=O)CCCC(=O)ON2C(=O)CCC2=O)cc1)c1ccccc1 | > 100 | > 100 | > 100 | > 100 | > 100 |  | 0.0133 | 1.8 |  | > 100 | 2.29 |  |  | < 0.01 | > 100 | > 100 | < 0.01 |  | 
8 | CO[C@H](c1ccccc1)[C@H](C)N(C)c1ccc2ccccc2c1C1=NC(C)(C)CO1 | 19.4 | 40.2 | 84.7 | 48.9 | 33.3 | 27.9 | 34.8 | 39.3 | 44.2 | 33.2 |  | 40.9 | 53.2 | 34 | 29.7 | 33.6 |  | 33 | 
9 | O=C(O)Cc1ccc2c(c1O)C(=O)c1c(ccc(CC(=O)O)c1O)C2=O | > 100 | > 100 | > 100 | > 100 | > 100 |  | > 100 | > 100 | > 100 | > 100 | > 100 | > 100 | > 100 | > 100 | > 100 | > 100 | > 100 | > 100 | > 100
10 | CC1=NN(c2ccccc2)C(=O)C1=C1SCCCS1 | 37.5 | 66 | 84.7 | 39 | > 100 | > 100 | > 100 | 36.1 | 88.4 | 83.2 |  | 29.3 | 46.1 | > 100 | > 100 | > 100 | > 100 | > 100 | > 100
11 | COc1cccc(/C=C2\C(=O)N(C(=O)Cc3ccccc3)N=C2C)c1 | > 100 | > 100 | > 100 | > 100 |  | > 100 | > 100 | > 100 | > 100 | > 100 | > 100 | > 100 | > 100 | > 100 | > 100 | > 100 | > 100 |  | > 100
12 | O=S(Cc1cc2c(cc1Br)OCO2)c1ccccc1 (stereo not given) | 56.3 | 59.4 | > 100 | 76.3 | > 100 | > 100 | > 100 | > 100 | > 100 | > 100 | > 100 | > 100 | 59.4 | > 100 | > 100 | > 100 | > 100 | > 100 | > 100
13 | CO[C@@]12CC(=O)/C(=C(O)\C=C\c3ccccc3)C(=O)[C@]1(OC)Cc1ccccc1O2 | 83.8 | 46.6 | > 100 | 84.6 | > 100 | > 100 | 50.2 | 96 | > 100 | > 100 | > 100 | > 100 |  | 59.8 | > 100 | > 100 | 82.8 | 88.1 | 47
